One assay deals with PI3Kα (Homo sapiens, UniProt P42336). Kind of assay: PI3K biochemical assay, ATP consumption by luciferase-luciferin chemiluminescence. The conditions noted are these: 3 nM enzyme, 10 μM PIP2, approximately 2 h; read-out: IC50 in the PI3K-alpha assay. Here is the method:
P13Kα activity was measured as the percent of ATP consumed following the kinase reaction using luciferase-luciferin-coupled chemiluminescence. Reactions were conducted in 384-well white, medium binding microliter plates (Greiner). Kinase reactions were initiated by combining test compounds. ATP, substrate (PIP2), and kinase in a 20 μL volume in a buffer solution. The standard P13Kalpha assay buffer was composed 50 mM Tris, pH 7.5, 1 mM EGTA, 10 mM MgCl2, 1 mM DTT and 0.03% CHAPS. The standard assay concentrations for enzyme, ATP, and substrate were 3 nM, IpM, and 10 μM, respectively. The reaction mixture was incubated at ambient temperature for approximately 2 h. Following the kinase reaction, a 10 μL aliquot of luciferase-luciferin mix (Promega Kinase-Glo) was added and the chemiluminescence signal measured using a Victor2 or EnVision (Perkin Elmer). Total ATP consumption was limited to 40-60% and IC50 values of control compounds correlate well with literature references. Substituting P13Kα with P13Kβ, […], or PI3Kδ, the inhibitory activity of the compounds for the other isoforms of P13-K were measured. For the P13Kβ and P13Kβ assays, enzyme concentrations were 10 nM and 4 nM. respectively. For the P13γ assay, enzyme concentration was 40 nM, the incubation time was 1 h, and the concentration of MgCl2 in the assay buffer was 5 mM.

A further assay addresses mTOR/GbL/Raptor (mTORC1) (Homo sapiens, UniProt P42345). In words: mTOR/GbL/Raptor (mTORC1) ELISA assay, phosphorylation of 4E-BP1. The conditions noted are these: 0.2 nM mTORC1, 40 uM ATP, 50 nM NHis-tagged 4E-BP1, 120 minutes; read-out: IC50 in this assay (mTORC1 ELISA). It counts as biochemical. In short, it runs like this:
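Phospho-4E-BP1 was quantified by luminescent ELISA (anti-phospho-4E-BP1 IgG, HRP-tagged secondary) after capture of the His-tagged substrate on Ni-chelate plates.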
A general note: An ELISA detects its analyte on a solid surface through an enzyme-linked reagent.

Where only a bound is given, the exact number is not on record here.

Sequence of PI3Kα (P42336 whole entry): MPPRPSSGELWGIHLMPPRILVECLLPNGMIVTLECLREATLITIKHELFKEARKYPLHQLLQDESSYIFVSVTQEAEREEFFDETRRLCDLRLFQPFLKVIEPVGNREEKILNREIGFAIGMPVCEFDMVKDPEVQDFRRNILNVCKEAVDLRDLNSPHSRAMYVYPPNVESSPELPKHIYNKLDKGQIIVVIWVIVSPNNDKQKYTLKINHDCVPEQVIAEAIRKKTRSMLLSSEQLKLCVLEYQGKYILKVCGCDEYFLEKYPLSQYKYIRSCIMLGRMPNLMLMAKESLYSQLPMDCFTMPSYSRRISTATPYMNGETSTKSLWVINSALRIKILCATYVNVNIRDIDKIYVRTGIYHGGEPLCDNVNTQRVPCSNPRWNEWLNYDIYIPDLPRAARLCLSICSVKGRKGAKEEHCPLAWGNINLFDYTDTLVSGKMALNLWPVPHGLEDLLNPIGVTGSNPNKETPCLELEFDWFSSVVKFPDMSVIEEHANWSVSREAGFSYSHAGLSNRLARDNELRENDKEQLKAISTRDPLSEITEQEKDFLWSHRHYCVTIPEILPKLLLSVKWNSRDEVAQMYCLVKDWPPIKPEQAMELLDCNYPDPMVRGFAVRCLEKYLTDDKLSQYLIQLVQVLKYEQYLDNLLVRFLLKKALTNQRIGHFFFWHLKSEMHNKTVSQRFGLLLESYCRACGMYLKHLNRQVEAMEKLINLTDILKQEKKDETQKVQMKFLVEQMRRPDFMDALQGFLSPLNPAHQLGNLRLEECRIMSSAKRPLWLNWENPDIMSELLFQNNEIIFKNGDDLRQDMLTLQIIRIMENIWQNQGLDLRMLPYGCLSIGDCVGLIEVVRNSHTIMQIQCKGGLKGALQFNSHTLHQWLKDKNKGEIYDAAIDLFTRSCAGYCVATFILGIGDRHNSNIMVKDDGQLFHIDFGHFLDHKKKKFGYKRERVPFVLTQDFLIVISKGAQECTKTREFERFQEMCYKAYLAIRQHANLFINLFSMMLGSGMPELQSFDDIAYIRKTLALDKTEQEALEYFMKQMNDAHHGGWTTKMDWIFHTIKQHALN
Sequence of PI3Kα (P27986 whole entry partner): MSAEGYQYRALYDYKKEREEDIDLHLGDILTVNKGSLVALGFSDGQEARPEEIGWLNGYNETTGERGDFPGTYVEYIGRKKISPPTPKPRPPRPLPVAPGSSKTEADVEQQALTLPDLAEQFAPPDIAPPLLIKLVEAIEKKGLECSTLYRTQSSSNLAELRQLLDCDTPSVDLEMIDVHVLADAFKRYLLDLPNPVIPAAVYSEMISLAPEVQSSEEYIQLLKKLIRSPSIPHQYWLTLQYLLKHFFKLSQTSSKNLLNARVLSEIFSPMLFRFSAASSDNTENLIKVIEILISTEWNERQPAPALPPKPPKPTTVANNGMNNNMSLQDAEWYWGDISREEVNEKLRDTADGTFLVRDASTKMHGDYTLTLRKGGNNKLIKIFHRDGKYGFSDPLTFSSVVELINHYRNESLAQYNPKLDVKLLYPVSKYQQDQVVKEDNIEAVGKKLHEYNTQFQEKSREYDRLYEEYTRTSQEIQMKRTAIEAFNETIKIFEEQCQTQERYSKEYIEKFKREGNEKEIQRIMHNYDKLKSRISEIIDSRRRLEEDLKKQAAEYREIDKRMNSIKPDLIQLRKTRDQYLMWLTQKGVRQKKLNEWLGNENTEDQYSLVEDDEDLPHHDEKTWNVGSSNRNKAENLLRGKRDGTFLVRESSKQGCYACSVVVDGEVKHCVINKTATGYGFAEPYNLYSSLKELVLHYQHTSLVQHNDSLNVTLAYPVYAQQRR

One may read the IC50 as the concentration that inhibits the measured activity by half. As for `Cc1cc(-c2cnn(C)c2C)cc2c1OCCN(c1nc(N)nc(C)c1C(C)C)C2` [Compound 110, 4-[7-(1,5-dimethyl-1H-pyrazol-4-yl)-9-methyl-2,3-dihydro-1,4-benzoxazepin-4(5H)-yl]-6-methyl-5-(1-methylethyl)pyrimidin-2-amine], the results for the 50% inhibitory concentration (IC50) on PI3Kα and on mTOR/GbL/Raptor (mTORC1) were 500 to 2500 nM and 100 to 500 nM, respectively. Taken in the same sequence, the figures for `Cc1cc(-c2cnc(O)c(NS(C)(=O)=O)c2)cc2c1OCCN(c1nc(N)nc(C)c1C(C)C)C2` [Compound 19, N-(5-{4-[2-amino-6-methyl-5-(1-methylethyl)pyrimidin-4-yl]-9-methyl-2,3,4,5-tetrahydro-1,4-benzoxazepin-7-yl}-2-hydroxypyridin-3-yl)methanesulfonamide] were 500 to 2500 nM and not above 100 nM. Taken in the same sequence, the figures for `COC(=O)c1ccc(-c2cc(C)c3c(c2)CN(c2nc(N)nc(C)c2C(C)C)CCO3)cc1OC` [Compound 68, methyl 4-{4-[2-amino-6-methyl-5-(1-methylethyl)pyrimidin-4-yl]-9-methyl-2,3,4,5-tetrahydro-1,4-benzoxazepin-7-yl}-2-(methyloxy)benzoate] were 500 to 2500 nM and 100 to 500 nM. For `Cc1cc(-c2cccc(N)c2)cc2c1OCCN(c1nc(N)nc(C)c1C(C)C)C2` [Compound 69, 4-[7-(3-aminophenyl)-9-methyl-2,3-dihydro-1,4-benzoxazepin-4(5H)-yl]-6-methyl-5-(1-methylethyl)pyrimidin-2-amine], the IC50 on PI3Kα was in the range of 500 to 2500 nM; at mTOR/GbL/Raptor (mTORC1) it was 100 to 500 nM. Consider `CCc1cc(-c2cnc3sc(N)nc3c2)cc2c1OCCN(c1nc(N)nc(C)c1C(C)C)C2` [Compound 17, 6-{4-[2-amino-6-methyl-5-(1-methylethyl)pyrimidin-4-yl]-9-ethyl-2,3,4,5-tetrahydro-1,4-benzoxazepin-7-yl}[1,3]thiazolo[5,4-b]pyridin-2-amine], for which the values for the IC50 at PI3Kα and on mTOR/GbL/Raptor (mTORC1) were 500 to 2500 nM and not above 100 nM, respectively.

In the case of `Cc1cc(-c2cn(C)nc2C)cc2c1OCCN(c1nc(N)nc(C)c1C(C)C)C2` [Compound 109, 4-[7-(1,3-dimethyl-1H-pyrazol-4-yl)-9-methyl-2,3-dihydro-1,4-benzoxazepin-4(5H)-yl]-6-methyl-5-(1-methylethyl)pyrimidin-2-amine], the IC50 on PI3Kα is 500 to 2500 nM; at mTOR/GbL/Raptor (mTORC1) it was 100 to 500 nM. Taken in the same sequence, the figures for `C=Cc1cnc(N)nc1N1CCOc2c(C)cc(-c3cnc4sc(N)nc4c3)cc2C1` [Compound 89, 6-[4-(2-amino-5-ethenylpyrimidin-4-yl)-9-methyl-2,3,4,5-tetrahydro-1,4-benzoxazepin-7-yl][1,3]thiazolo[5,4-b]pyridin-2-amine] were not above 100 nM and not above 100 nM. For the compound `Cc1cc(-c2nnc(N)s2)cc2c1OCCN(c1nc(CN(C)CC(F)F)nc(C)c1C(C)C)C2` [Compound 168, 5-{4-[2-{[(2,2-difluoroethyl)(methyl)amino]methyl}-6-methyl-5-(1-methylethyl)pyrimidin-4-yl]-9-methyl-2,3,4,5-tetrahydro-1,4-benzoxazepin-7-yl}-1,3,4-thiadiazol-2-amine], on mTOR/GbL/Raptor (mTORC1), the IC50 was not above 100 nM.

With `Cc1cc(-c2cnc3sc(N)nc3c2)cc2c1OCCN(c1ncnc(Cl)c1C(C)(C)O)C2` [Compound 131, 2-{4-[7-(2-amino[1,3]thiazolo[5,4-b]pyridin-6-yl)-9-methyl-2,3-dihydro-1,4-benzoxazepin-4(5H)-yl]-6-chloropyrimidin-5-yl}propan-2-ol], the IC50 at mTOR/GbL/Raptor (mTORC1) is 100 to 500 nM.

Regarding `Cc1cc(-c2nnc(N)s2)cc2c1OCCN(c1ncncc1C(C)C)C2` [Compound 177, 5-{9-methyl-4-[5-(1-methylethyl)pyrimidin-4-yl]-2,3,4,5-tetrahydro-1,4-benzoxazepin-7-yl}-1,3,4-thiadiazol-2-amine], the IC50 at mTOR/GbL/Raptor (mTORC1) is not above 100 nM.

As for `CC#CCc1c(C)nc(C)nc1N1CCOc2c(C)cc(-c3cnc4sc(N)nc4c3)cc2C1` [Compound 141, 6-[4-(5-but-2-yn-1-yl-2,6-dimethylpyrimidin-4-yl)-9-methyl-2,3,4,5-tetrahydro-1,4-benzoxazepin-7-yl][1,3]thiazolo[5,4-b]pyridin-2-amine], the IC50 at mTOR/GbL/Raptor (mTORC1) was not above 100 nM. On to `Cc1cc(-c2cnc(Cl)c(NS(=O)(=O)C(F)(F)F)c2)cc2c1OCCN(c1nc(N)nc(C)c1C(C)C)C2` [Compound 52, N-(5-{4-[2-amino-6-methyl-5-(1-methylethyl)pyrimidin-4-yl]-9-methyl-2,3,4,5-tetrahydro-1,4-benzoxazepin-7-yl}-2-chloropyridin-3-yl)-1,1,1-trifluoromethanesulfonamide], for which the half-maximal inhibitory concentration (IC50) at mTOR/GbL/Raptor (mTORC1) was not above 100 nM. For `CCNC(=O)c1sc(N2CCOc3c(C)cc(-c4cnc(Cl)c(NS(C)(=O)=O)c4)cc3C2)nc1C(C)C` [Compound 33, 2-[7-{6-chloro-5-[(methylsulfonyl)amino]pyridin-3-yl}-9-methyl-2,3-dihydro-1,4-benzoxazepin-4(5H)-yl]-N-ethyl-4-(1-methylethyl)-1,3-thiazole-5-carboxamide], the IC50 on PI3Kα lay in the range of 500 to 2500 nM; at mTOR/GbL/Raptor (mTORC1), 100 to 500 nM. Regarding `COCCc1c(C)nc(N)nc1N1CCOc2c(C)cc(-c3cnc4sc(N)nc4c3)cc2C1` [Compound 16, 6-(4-{2-amino-6-methyl-5-[2-(methyloxy)ethyl]pyrimidin-4-yl}-9-methyl-2,3,4,5-tetrahydro-1,4-benzoxazepin-7-yl)[1,3]thiazolo[5,4-b]pyridin-2-amine], the IC50 on mTOR/GbL/Raptor (mTORC1) was not above 100 nM. The same measure, in the same setting: in the case of `Cc1cc(-c2nnc(N)s2)cc2c1OCCN(c1nc(N)ncc1C(C)C)C2` [Compound 180, 4-[7-(5-amino-1,3,4-thiadiazol-2-yl)-9-methyl-2,3-dihydro-1,4-benzoxazepin-4(5H)-yl]-5-(1-methylethyl)pyrimidin-2-amine] it was not above 100 nM. Turning to `[2H]C1([2H])Oc2c(C)cc(-c3cnc4sc(N)nc4c3)cc2CN(c2nc(N)nc(C)c2C(C)C)C1([2H])[2H]` [Compound 122, 6-{4-[2-amino-6-methyl-5-(1-methylethyl)pyrimidin-4-yl]-2,3,4,5-tetrahydro-1,4-benzoxazepin-7-yl}[1,3]thiazolo[5,4-b]pyridin-2-amine-d_4_], the IC50 on PI3Kα and at mTOR/GbL/Raptor (mTORC1) was not above 100 nM each time.

Source of the values: patent US20140107100A1, “Benzoxazepines as Inhibitors of PI3K/mTOR and Methods of Their Use and Manufacture” (EXELIXIS, INC., priority 2010, published 2014).
